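All cell lines were grown in 96-well plates and treated with compound for 48 hours. GI50: concentration for 50% inhibition of growth. The concentration for full growth arrest is given as TGI.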
Key:
Experiment in all cases: NCI-60 cell line screen, 48 h; in the data active = GI50 below about 0.43 µM; inactive = the rest
[1] = tested on: SW-620 colon
[2] = tested on: NCI/ADR-RES ovarian
[3] = tested on: SN12C renal
[4] = tested on: LOX IMVI melanoma
[5] = tested on: HCC-2998 colon
[6] = tested on: RPMI-8226 leukemia
[7] = tested on: SF-268 CNS
[8] = tested on: M14 melanoma
[9] = tested on: T-47D breast
[10] = tested on: CAKI-1 renal
[11] = tested on: OVCAR-3 ovarian
[12] = tested on: K-562 leukemia
[13] = tested on: UO-31 renal
[14] = tested on: EKVX NSCLC
[15] = tested on: RXF 393 renal
[16] = tested on: SNB-19 CNS
[17] = tested on: NCI-H23 lung
[18] = tested on: DU-145 prostate
[19] = tested on: HCT-116 colon
[20] = tested on: HS 578T breast
[21] = tested on: HT29 colon
[22] = tested on: SNB-75 CNS
[23] = tested on: SF-539 CNS
[24] = tested on: NCI-H226 lung
[25] = tested on: SK-MEL-5 melanoma
[26] = tested on: MALME-3M melanoma
[27] = tested on: MDA-MB-231 breast
[28] = tested on: HL-60(TB) leukemia
[29] = tested on: MCF7 breast
[30] = tested on: A498 renal
[31] = tested on: A549 NSCLC
[32] = tested on: OVCAR-5 ovarian
[33] = tested on: SK-MEL-2 melanoma
[34] = tested on: SK-MEL-28 melanoma
[35] = tested on: PC-3 prostate
[36] = tested on: ACHN renal
[37] = tested on: MDA-MB-435
[38] = tested on: SR leukemia
[39] = tested on: COLO 205 colon
[40] = tested on: KM12 colon
[41] = tested on: UACC-257 melanoma
[42] = tested on: TK-10 renal
[43] = tested on: SF-295 CNS
[44] = tested on: OVCAR-8 ovarian
[45] = tested on: HOP-62 NSCLC
[46] = tested on: U251 CNS
[47] = tested on: NCI-H522 lung
[48] = tested on: CCRF-CEM leukemia
[49] = tested on: UACC-62 melanoma
[50] = tested on: OVCAR-4 ovarian
[51] = tested on: MOLT-4 leukemia
[52] = tested on: SK-OV-3 ovarian
[53] = tested on: BT-549 breast
[54] = tested on: IGROV1 ovarian
[55] = tested on: NCI-H460 lung
[56] = tested on: HCT-15 colon
[57] = tested on: 786-0 renal
[58] = tested on: HOP-92 NSCLC

COc1ccccc1-n1c(-c2cc(O)ccc2C)cn2c3c(=O)[nH]c(=O)n(C)c3nc12
5.75 µM: TGI [20]
inactive: GI50 [1] > 100 µM | GI50 [2] > 100 µM | GI50 [3] 4.85 µM | GI50 [4] 2.28 µM | GI50 [5] > 100 µM | GI50 [6] > 100 µM | GI50 [7] 5.07 µM | GI50 [8] 90.8 µM | GI50 [9] 42.4 µM | GI50 [10] 2.95 µM | GI50 [11] 4.28 µM | GI50 [13] 9.33 µM | GI50 [14] 10.1 µM | GI50 [15] 0.872 µM | GI50 [16] > 100 µM | GI50 [17] 60.9 µM | GI50 [18] 7.04 µM | GI50 [19] 21.1 µM | GI50 [20] 0.567 µM | GI50 [21] 1.62 µM | GI50 [23] 8.86 µM | GI50 [24] 78.7 µM | GI50 [25] 53.2 µM | GI50 [26] > 100 µM | GI50 [27] 3.06 µM | GI50 [28] > 100 µM | GI50 [29] > 100 µM | GI50 [30] 25 µM | GI50 [31] 17.4 µM | GI50 [32] 28.1 µM | GI50 [33] > 100 µM | GI50 [34] > 100 µM | GI50 [35] > 100 µM | GI50 [36] 1.99 µM | GI50 [37] > 100 µM | GI50 [38] 66 µM | GI50 [39] 18.2 µM | GI50 [40] > 100 µM | GI50 [41] > 100 µM | GI50 [42] 13.3 µM | GI50 [43] 5.34 µM | GI50 [44] 10.9 µM | GI50 [45] 7.74 µM | GI50 [46] 22.2 µM | GI50 [47] 1.79 µM | GI50 [48] > 100 µM | GI50 [49] > 100 µM | GI50 [50] > 100 µM | GI50 [51] 85.9 µM | GI50 [52] 2.78 µM | GI50 [53] 20.5 µM | GI50 [54] 3.52 µM | GI50 [55] > 100 µM | GI50 [56] 54.7 µM | GI50 [57] 6.24 µM
13.9 µM: TGI [54]
8.12 µM: TGI [21]
48.7 µM: TGI [42]
7.05 µM: TGI [10]
63.5 µM: TGI [36]
4.11 µM: TGI [15]
48 µM: TGI [39]
> 100 µM: TGI [1] | TGI [2] | TGI [3] | TGI [5] | TGI [6] | TGI [7] | TGI [8] | TGI [9] | TGI [11] | TGI [12] | TGI [13] | TGI [14] | TGI [16] | TGI [17] | TGI [18] | TGI [19] | TGI [23] | TGI [24] | TGI [25] | TGI [26] | TGI [27] | TGI [28] | TGI [29] | TGI [30] | TGI [31] | TGI [32] | TGI [33] | TGI [34] | TGI [35] | TGI [37] | TGI [38] | TGI [40] | TGI [41] | TGI [43] | TGI [44] | TGI [45] | TGI [46] | TGI [47] | TGI [48] | TGI [49] | TGI [50] | TGI [51] | TGI [52] | TGI [53] | TGI [55] | TGI [56] | TGI [57]
1.12 µM: TGI [22]
active: GI50 [12] 0.31 µM | GI50 [22] 0.129 µM
16 µM: TGI [4]

Cn1nc(/C=C\C(=O)N2CC(CCl)c3c2cc(N)c2ccccc32)cc1/C=C/C(=O)N1CC(CCl)c2c1cc(N)c1ccccc21 (configuration not stated)
0.0596 µM: TGI [35]
0.591 µM: TGI [16]
0.0965 µM: TGI [14]
0.295 µM: TGI [2]
> 100 µM: TGI [1] | TGI [9] | TGI [12] | TGI [29] | TGI [36] | TGI [40] | TGI [50] | TGI [51] | TGI [52] | TGI [55]
< 0.01 µM: TGI [8] | TGI [10] | TGI [24] | TGI [27] | TGI [32] | TGI [48] | TGI [49] | TGI [53]
0.0411 µM: TGI [45]

C/C=C1\NC(=O)[C@H](Cc2ccccc2)NC(=O)[C@@H](C(C)C)NC(=O)[C@@H]([C@@H](C)CC)NC(=O)[C@H](NC(=O)[C@H](NC(=O)[C@H](CCCN)NC(=O)[C@H]2CCCN2C(=O)[C@H](NC(=O)[C@@H](NC(=O)[C@@H](NC(=O)[C@H](NC(=O)CCCC(C)C)C(C)C)[C@@H](C)O)C(C)C)C(C)C)[C@@H](C)CC)[C@@H](C)OC(=O)[C@H](C(C)C)NC1=O
15.2 µM: TGI [17]
12 µM: TGI [53]
2.84 µM: TGI [41]
inactive: GI50 [41] 1.02 µM
4.24 µM: TGI [24]

COc1cc(C2c3cc4c(cc3OC(Nc3ccc(C(=O)O)cc3)C2C)OCO4)cc(OC)c1OC (configuration not stated)
0.761 µM: TGI [10]
6.02 µM: TGI [47]
0.541 µM: TGI [28]
> 47.5 µM: TGI [31]
28 µM: TGI [13]
> 59.9 µM: TGI [33]
0.265 µM: TGI [37]
0.518 µM: TGI [39]
0.853 µM: TGI [5]
> 39.1 µM: TGI [7]
> 68.6 µM: TGI [36]
25 µM: TGI [6]
2.06 µM: TGI [27]
1.66 µM: TGI [40]
> 52.9 µM: TGI [50]
> 61.9 µM: TGI [49]
> 41.8 µM: TGI [48]
30 µM: TGI [46]
> 100 µM: TGI [1] | TGI [3] | TGI [4] | TGI [9] | TGI [14] | TGI [30] | TGI [32] | TGI [34] | TGI [35] | TGI [42] | TGI [43] | TGI [44] | TGI [45] | TGI [54] | TGI [55] | TGI [56] | TGI [57]
3.53 µM: TGI [22]
> 74.6 µM: TGI [58]
0.522 µM: TGI [25]
12.2 µM: TGI [19]
25.8 µM: TGI [51]
> 93.4 µM: TGI [16]
> 68.7 µM: TGI [17]
0.561 µM: TGI [23]
4.9 µM: TGI [2]
31.8 µM: TGI [8]
> 94.1 µM: TGI [41]
> 26.8 µM: TGI [53]
> 34.2 µM: TGI [21]
40 µM: TGI [29]
92 µM: TGI [15]

From PubChem BioAssay (NCI)
